#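 GI50: concentration for 50% inhibition of growth. TGI marks complete inhibition of growth.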
# Legend:
# Assay in all cases: NCI-60 cell line screen, 384-well format
# [1] = tested on: 786-0 renal
# [2] = tested on: A498 renal
# [3] = tested on: A549 NSCLC
# [4] = tested on: ACHN renal
# [5] = tested on: BT-549 breast
# [6] = tested on: CAKI-1 renal
# [7] = tested on: CCRF-CEM leukemia
# [8] = tested on: DU-145 prostate
# [9] = tested on: HCC-2998 colon
# [10] = tested on: HCT-15 colon
# [11] = tested on: HL-60(TB) leukemia
# [12] = tested on: HOP-62 NSCLC
# [13] = tested on: HOP-92 NSCLC
# [14] = tested on: HS 578T breast
# [15] = tested on: HT29 colon
# [16] = tested on: IGROV1 ovarian
# [17] = tested on: K-562 leukemia
# [18] = tested on: LOX IMVI melanoma
# [19] = tested on: M14 melanoma
# [20] = tested on: MALME-3M melanoma
# [21] = tested on: MCF7 breast
# [22] = tested on: MDA-MB-231 breast
# [23] = tested on: MDA-MB-435 melanoma
# [24] = tested on: MOLT-4 leukemia
# [25] = tested on: NCI-H322M lung
# [26] = tested on: NCI-H460 NSCLC
# [27] = tested on: NCI-H522 lung
# [28] = tested on: OVCAR-3 ovarian
# [29] = tested on: OVCAR-4 ovarian
# [30] = tested on: OVCAR-5 ovarian
# [31] = tested on: OVCAR-8 ovarian
# [32] = tested on: RPMI-8226 leukemia
# [33] = tested on: SF-268 CNS
# [34] = tested on: SF-539 CNS
# [35] = tested on: SK-MEL-2 melanoma
# [36] = tested on: SK-MEL-28 melanoma
# [37] = tested on: SK-MEL-5 melanoma
# [38] = tested on: SK-OV-3 ovarian
# [39] = tested on: SN12C renal
# [40] = tested on: SNB-19 CNS
# [41] = tested on: SNB-75 CNS
# [42] = tested on: SR leukemia
# [43] = tested on: SW-620 colon
# [44] = tested on: T-47D breast
# [45] = tested on: TK-10 renal
# [46] = tested on: UACC-257 melanoma
# [47] = tested on: UO-31 renal
smiles,measurement,setting,value
C[C@@H]1Cc2c(ccc3[nH]ncc23)[C@@H](c2ccc(NC3CN(CCCF)C3)cn2)N1CC(F)(F)F,GI50,[1],15.2 µM
same,TGI,[1],28.5 µM
same,GI50,[2],12.5 µM
same,TGI,[2],25 µM
same,GI50,[3],27.5 µM
same,TGI,[3],77.6 µM
same,GI50,[4],17.5 µM
same,TGI,[4],31.5 µM
same,GI50,[5],13.1 µM
same,TGI,[5],25.9 µM
same,GI50,[6],13.7 µM
same,TGI,[6],26.7 µM
same,GI50,[7],5.58 µM
same,TGI,[7],17.4 µM
same,GI50,[8],18.5 µM
same,TGI,[8],37.7 µM
same,GI50,[9],13.8 µM
same,TGI,[9],26.8 µM
same,GI50,[10],16.4 µM
same,TGI,[10],30.3 µM
same,GI50,[11],13.5 µM
same,TGI,[11],26.4 µM
same,GI50,[12],17.6 µM
same,TGI,[12],31.4 µM
same,GI50,[13],13 µM
same,TGI,[13],25.7 µM
same,GI50,[14],13 µM
same,TGI,[14],25.7 µM
same,GI50,[15],14.6 µM
same,TGI,[15],27.9 µM
same,GI50,[16],14.8 µM
same,TGI,[16],30.1 µM
same,GI50,[17],14.2 µM
same,TGI,[17],27.5 µM
same,GI50,[18],15.8 µM
same,TGI,[18],29.3 µM
same,GI50,[19],16.3 µM
same,TGI,[19],29.9 µM
same,GI50,[20],13.8 µM
same,TGI,[20],26.7 µM
same,GI50,[21],< 10 nM
same,TGI,[21],13.5 µM
same,GI50,[22],14.2 µM
same,TGI,[22],28.7 µM
same,GI50,[23],16.8 µM
same,TGI,[23],30.6 µM
same,GI50,[24],3.09 µM
same,TGI,[24],12.8 µM
same,GI50,[25],16.4 µM
same,TGI,[25],30.9 µM
same,GI50,[26],15.6 µM
same,TGI,[26],29.3 µM
same,GI50,[27],11.9 µM
same,TGI,[27],24.3 µM
same,GI50,[28],14.5 µM
same,TGI,[28],27.7 µM
same,GI50,[29],19.3 µM
same,TGI,[29],35.7 µM
same,GI50,[30],16 µM
same,TGI,[30],30.7 µM
same,GI50,[31],15.4 µM
same,TGI,[31],28.9 µM
same,GI50,[32],6.32 µM
same,TGI,[32],19.3 µM
same,GI50,[33],16.5 µM
same,TGI,[33],30.3 µM
same,GI50,[34],16.7 µM
same,TGI,[34],30.4 µM
same,GI50,[35],15.8 µM
same,TGI,[35],29.2 µM
same,GI50,[36],16.1 µM
same,TGI,[36],29.7 µM
same,GI50,[37],14.8 µM
same,TGI,[37],28 µM
same,GI50,[38],17.5 µM
same,TGI,[38],31.4 µM
same,GI50,[39],15.9 µM
same,TGI,[39],30.5 µM
same,GI50,[40],23.1 µM
same,TGI,[40],49.8 µM
same,GI50,[41],17.6 µM
same,TGI,[41],31.4 µM
same,GI50,[42],2180 nM
same,TGI,[42],4.92 µM
same,GI50,[43],16.6 µM
same,TGI,[43],30.4 µM
same,GI50,[44],10.9 µM
same,TGI,[44],22.9 µM
same,GI50,[45],16.6 µM
same,TGI,[45],30.5 µM
same,GI50,[46],13.9 µM
same,TGI,[46],26.9 µM
same,GI50,[47],17.6 µM
same,TGI,[47],31.5 µM

# From PubChem BioAssay (NCI)
